Experimental data taken from the supplement of paper PMC10307832.

Tests used:
Experiment in all cases: relative viability (nuclei count vs DMSO), 5 days (fraction); higher = more cells survive
Avagacestat + Trametinib = compound: NC(=O)[C@@H](CCC(F)(F)F)N(Cc1ccc(-c2ncon2)cc1F)S(=O)(=O)c1ccc(Cl)cc1 [Avagacestat] + CC(=O)Nc1cccc(-n2c(=O)n(C3CC3)c(=O)c3c(Nc4ccc(I)cc4F)n(C)c(=O)c(C)c32)c1 [Trametinib] (partner 0.02 µM)
In short: (§1)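 Lung cancer cell lines in 1536-well plates were dosed by pin tool the day after seeding, either with one drug alone or with a fixed anchor-drug dose plus five library-drug doses (not always all listed) in √10 steps. After 5 days, cells were fixed and their nuclei stained in one step (final 0.05% Triton X-100, 1% formaldehyde, 1 ug/ml Hoechst), then counted on 4× images. Relative viability is the nuclei count in treated wells divided by that in vehicle wells. Values are medians of duplicate plates.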

Avagacestat + Lapatinib = compound: NC(=O)[C@@H](CCC(F)(F)F)N(Cc1ccc(-c2ncon2)cc1F)S(=O)(=O)c1ccc(Cl)cc1 [Avagacestat] + CS(=O)(=O)CCNCc1ccc(-c2ccc3ncnc(Nc4ccc(OCc5cccc(F)c5)c(Cl)c4)c3c2)o1 [Lapatinib] (partner 2 µM)
In short: as §1

Avagacestat + Phenformin = compound: NC(=O)[C@@H](CCC(F)(F)F)N(Cc1ccc(-c2ncon2)cc1F)S(=O)(=O)c1ccc(Cl)cc1 [Avagacestat] + N=C(N)NC(=N)NCCc1ccccc1 [Phenformin] (partner 250 µM)
In short: as §1

Avagacestat + Olaparib = compound: NC(=O)[C@@H](CCC(F)(F)F)N(Cc1ccc(-c2ncon2)cc1F)S(=O)(=O)c1ccc(Cl)cc1 [Avagacestat] + O=C(c1cc(Cc2n[nH]c(=O)c3ccccc23)ccc1F)N1CCN(C(=O)C2CC2)CC1 [Olaparib] (partner 8 µM)
In short: as §1

Cell Line | relative viability (Avagacestat + Trametinib; first compound 0.08 µM) | relative viability (Avagacestat + Trametinib; first compound 0.253 µM) | relative viability (Avagacestat + Trametinib; first compound 0.8 µM) | relative viability (Avagacestat + Trametinib; first compound 2.53 µM) | relative viability (Avagacestat + Trametinib; first compound 8 µM) | relative viability (Avagacestat + Lapatinib; first compound 0.08 µM) | relative viability (Avagacestat + Lapatinib; first compound 0.253 µM) | relative viability (Avagacestat + Lapatinib; first compound 0.8 µM) | relative viability (Avagacestat + Lapatinib; first compound 2.53 µM) | relative viability (Avagacestat + Lapatinib; first compound 8 µM) | relative viability (Avagacestat + Phenformin; first compound 0.08 µM) | relative viability (Avagacestat + Phenformin; first compound 0.253 µM) | relative viability (Avagacestat + Phenformin; first compound 0.8 µM) | relative viability (Avagacestat + Phenformin; first compound 2.53 µM) | relative viability (Avagacestat + Phenformin; first compound 8 µM) | relative viability (Avagacestat + Olaparib; first compound 0.08 µM) | relative viability (Avagacestat + Olaparib; first compound 0.253 µM) | relative viability (Avagacestat + Olaparib; first compound 0.8 µM) | relative viability (Avagacestat + Olaparib; first compound 2.53 µM) | relative viability (Avagacestat + Olaparib; first compound 8 µM)
COR-L 105 | 0.401 | 0.45 | 0.457 | 0.42 | 0.474 | 0.345 | 0.352 | 0.341 | 0.345 | 0.348 | 0.534 | 0.407 | 0.448 | 0.397 | 0.429 | 0.724 | 0.664 | 0.845 | 0.601 | 0.565
LK-2 | 1.02 | 0.917 | 0.651 | – | 0.747 | 1.13 | 0.985 | 0.785 | 0.521 | 0.76 | 0.6 | 0.36 | 0.32 | 0.384 | 0.375 | 0.846 | 0.806 | 0.8 | 0.505 | 0.77
PC-14 | 1.14 | 1.1 | 0.933 | 0.736 | 0.649 | 0.336 | 0.329 | 0.476 | 0.236 | 0.315 | 0.768 | 0.728 | 0.86 | – | 0.628 | 0.316 | 0.418 | 0.298 | 0.251 | 0.3
SW 1573 | 0.75 | 0.679 | 0.519 | 0.629 | 0.462 | 1.19 | 1.21 | 0.982 | 1.1 | 1.09 | 0.498 | 0.431 | 0.366 | 0.369 | 0.341 | 0.643 | 0.572 | 0.465 | 0.472 | 0.47
NCI-H2085 | 0.608 | 0.604 | 0.637 | 0.559 | 0.644 | 0.805 | 0.939 | 0.912 | 0.728 | 0.811 | 0.85 | 0.756 | 0.726 | 0.862 | 0.729 | 0.823 | 0.833 | 0.847 | 0.825 | 0.8
NCI-H441 | 0.52 | 0.462 | 0.449 | 0.515 | 0.411 | – | – | – | – | – | 1.23 | 0.957 | 1.02 | 0.917 | 0.676 | 0.679 | 0.592 | 0.656 | 0.803 | 0.613
NCI-H1648 | 0.443 | 0.426 | 0.36 | 0.318 | 0.32 | – | – | – | – | – | – | – | – | – | – | 0.678 | 0.806 | 0.516 | 0.437 | 0.534
NCI-H2126 | 0.612 | 0.553 | 0.545 | 0.524 | 0.512 | 0.767 | 0.837 | 0.805 | 0.722 | 0.657 | 0.509 | 0.516 | 0.569 | 0.561 | 0.511 | 0.921 | 0.941 | 0.931 | 1.03 | 0.873
LXF-289 | 0.725 | 0.656 | 0.767 | 0.659 | 0.636 | 0.895 | 0.921 | 0.886 | 0.892 | 0.814 | 0.516 | 0.505 | 0.495 | 0.495 | 0.476 | 1.41 | 1.41 | 1.15 | 1.08 | 1.04
